From patent US20110053916A1 (Vertex Pharmaceuticals Incorporated, priority 2009, published 2011)
Structures can show the parent of a compound that is named as a salt. Where two headings read alike, the source gives them in different places.

Experiments:
PknB = target: T1, PknB (Mycobacterium tuberculosis, UniProt P9WI81); test: biochemical; parameters: species or system M. tuberculosis; details: for Ki: read-out: Ki Values
T1 construct: made in house

[1] = system: Mycobacterium tuberculosis H37Ra; test: Mycobacterium tuberculosis growth inhibition assay (microtiter dilution, resazurin reduction); type: cell-based; details: 7H9 broth, 9 days + 24 h resazurin, lowest concentration inhibiting resazurin reduction by >70%, several symbols in a cell = repeat determinations
Procedure: Compounds were screened for their ability to inhibit the growth of Mycobacterium tuberculosis H37Ra using a standard microtiter dilution method with reduction of the dye resazurin as an indicator of growth. The growth assay was carried out in standard Mycobacterium liquid growth medium, 7H9Broth (BD Biosciences, Franklin Lakes, N.J.) supplemented with 10% ADC enrichment (BD Biosciences, Franklin Lakes, N.J.). The medium was inoculate with ˜1×10^6 cells/milliliter of Mycobacterium tuberculosis H37Ra grown on a the surface of a growth medium solid medium (7H11 agar [BD Biosciences, Franklin Lakes, N.J.] supplemented with 10% OADC enrichment [BD Biosciences, Franklin Lakes, N.J.]).
Two-fold serial dilutions (either 7 or 11-step series) of test compounds in DMSO were dispensed into 96-well assay plates (sterile, black sided, clear bottom wells) in a volume of 1 microliter. One microliter of DMSO was dispensed into a control well at the end of each series. One-hundred microliters of the bacterial cell suspension in growth medium was dispensed into each test well containing a DSMO solution of compound. The assay plates were covered with a fitted lid and incubated at 37° C. in a humidified chamber for 9 days. On the ninth day 30 microliters of a 0.01% solution of resazurin (Sigma Chemical Co., St. Louis, Mo.) in distilled water was added to each well and the baseline fluorescence of resazurin was determined by measuring well fluorescence at an excitation wavelength of 492 nm and an emission wavelength of 595 nm on a Spectrafluor Plus (Tecan, Durham, N.C.) instrument. The assay plates were returned to the incubation chamber for 24 hours. After 24 hours, the fluorescence of the wells (resulting from the reduction of resazurin dye) was measured at an excitation wavelength of 492 nm and an emission wavelength of 595 nm on the Spectrafluor Plus instrument. The minimum inhibitory concentration (MIC) was called as the lowest concentration of compound that inhibited the reduction of resazurin by >70%, as compared to the DMSO (untreated) control wells. MIC values are represented as the following values: • A* <1.6 μM • A 1.6 μM<12.5 μM • B** 12.5 μM-25.0 μM • B* 25.0 μM-50.0 μM • B 50.0 μM-100.0 μM • C >100.0 μM

[2] = 3 nM PknB, 6 uM GarA, 3 μM ATP, 30 min, competitive tight-binding fit, several symbols in a cell = repeat determinations

T1 sequence (P9WI81 whole entry): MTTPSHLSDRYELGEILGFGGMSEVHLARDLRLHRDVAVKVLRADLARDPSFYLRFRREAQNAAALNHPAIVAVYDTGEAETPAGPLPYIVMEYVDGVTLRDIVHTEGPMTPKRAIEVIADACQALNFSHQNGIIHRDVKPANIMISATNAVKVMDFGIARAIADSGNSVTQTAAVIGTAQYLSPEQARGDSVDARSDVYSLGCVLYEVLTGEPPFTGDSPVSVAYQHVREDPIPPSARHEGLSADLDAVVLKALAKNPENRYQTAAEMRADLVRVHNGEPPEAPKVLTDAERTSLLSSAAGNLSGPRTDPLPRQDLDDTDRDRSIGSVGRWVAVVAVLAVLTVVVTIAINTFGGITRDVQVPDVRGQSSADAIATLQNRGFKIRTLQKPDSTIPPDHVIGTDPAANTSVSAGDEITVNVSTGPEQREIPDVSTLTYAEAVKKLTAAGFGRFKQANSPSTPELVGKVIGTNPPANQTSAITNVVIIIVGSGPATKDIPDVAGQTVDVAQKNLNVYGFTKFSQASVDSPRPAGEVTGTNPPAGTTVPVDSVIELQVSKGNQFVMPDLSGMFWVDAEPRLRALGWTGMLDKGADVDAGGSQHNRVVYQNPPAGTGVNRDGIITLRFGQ

SMILES | Ki (PknB; [2]) [nM] | MIC values [1] | Ki Values (PknB; [2]) | Ki Values (PknB)
C#Cc1cnc(Nc2ccc3[nH]ncc3c2)nc1Nc1cc(C2CC2)[nH]n1 [Compound 91, N^4-(5-cyclopropyl-1H-pyrazol-3-yl)-5-ethynyl-N^2-(1H-indazol-5-yl)pyrimidine-2,4-diamine] | 10 to 50 | B+ | – | –
C#Cc1cnc(-c2ccc(C)c(C(N)=O)c2)nc1Nc1cc(C2CC2)[nH]n1 [Compound 93, 5-(4-(5-Cyclopropyl-1H-pyrazol-3-ylamino)-5-ethynylpyrimidin-2-yl)-2-methyl benzamide] | 10 to 50 | B, C | – | –
CS(=O)(=O)c1ccc(Nc2nccc(Nc3cc(C4CC4)[nH]n3)n2)cc1 [Compound 94, N′-(5-cyclopropyl-2H-pyrazol-3-yl)-N-(4-methylsulfonylphenyl)-pyrimidine-2,4-diamine] | 1 to 10 | B++, B+ | – | –
O=S(=O)(c1ccc(-c2ncc(Cl)c(Nc3cc(C4CC4)[nH]n3)n2)s1)N1CCCC1 [Compound 98, 5-chloro-N-(5-cyclopropyl-1H-pyrazol-3-yl)-2-(5-pyrrolidin-1-ylsulfonyl-2-thienyl)-pyrimidin-4-amine] | 1 to 10 | B, C | – | –
NS(=O)(=O)c1cccc(-c2ncc(O)c(Nc3cc(C4CC4)n[nH]3)n2)c1 [Compound 99, 3-(4-(3-cyclopropyl-1H-pyrazol-5-ylamino)-5-hydroxypyrimidin-2-yl)benzenesulfonamide] | 10 to 50 | B+, B | – | –
CN(C)S(=O)(=O)c1ccc(Nc2nccc(Nc3cc(C4CC4)n[nH]3)n2)cc1 [Compound 103, 4-(4-(3-cyclopropyl-1H-pyrazol-5-ylamino)pyrimidin-2-ylamino)N,N-dimethylbenzenesulfonamide] | – | B++, B+ | A**, A* | –
Oc1cccc(-c2ncc(Cl)c(Nc3cc(C4CC4)[nH]n3)n2)c1 [Compound 104, 3-[5-chloro-4-[(5-cyclopropyl-1H-pyrazol-3-yl)amino]-pyrimidin-2-yl]phenol] | – | B++, C | A*, A | –
CS(=O)(=O)Nc1ccc(-c2ncc(Cl)c(Nc3cc(C4CC4)[nH]n3)n2)cc1 [Compound 105, N-[4-[5-chloro-4-[(5-cyclopropyl-1H-pyrazol-3-yl)amino]pyrimidin-2-yl]phenyl]methanesulfonamide] | 10 to 50 | B+ | – | –
O=S(=O)(c1ccc(-c2ncc(Cl)c(Nc3cc(C4CC4)[nH]n3)n2)s1)N1CCOCC1 [Compound 106, 5-chloro-N-(5-cyclopropyl-1H-pyrazol-3-yl)-2-(5-morpholinosulfonyl-2-thienyl)-pyrimidin-4-amine] | – | B++, C | A*, A | –
CS(=O)(=O)Nc1cccc(-c2ncc(Cl)c(Nc3cc(C4CC4)[nH]n3)n2)c1 [Compound 107, N-[3-[5-chloro-4-[(5-cyclopropyl-1H-pyrazol-3-yl)amino]pyrimidin-2-yl]phenyl]methanesulfonamide] | 50 to 100 | B++, B+ | – | –
C#Cc1cnc(-c2ccc(S(=O)(=O)NCCO)s2)nc1Nc1cc(C2CC2)[nH]n1 [Compound 108, 5-(4-(3-cyclopropyl-1H-pyrazol-5-ylamino)-5-ethynylpyrimidin-2-yl)-N-(2-hydroxyethyl)thiophene-2-sulfonamide] | 1 to 10 | B+ | – | –
C#Cc1cnc(-c2ccc(C(C)=O)s2)nc1Nc1cc(C2CC2)[nH]n1 [Compound 111, 1-(5-(4-(5-Cyclopropyl-1H-pyrazol-3-ylamino)-5-ethynylpyrimidin-2-yl)thiophen-2-yl)ethanone] | – | B++, B | A**, A* | –
COCCNS(=O)(=O)c1ccc(Nc2nccc(Nc3cc(C4CC4)n[nH]3)n2)cc1 [Compound 112, 4-[[4-[(5-cyclopropyl-2H-pyrazol-3-yl)amino]pyrimidin-2-yl]amino]-N-(2-methoxyethyl)benzenesulfonamide] | 10 to 50 | B+ | – | –
C#Cc1cnc(-c2ccc(S(=O)(=O)NC)s2)nc1Nc1cc(C2CC2)n[nH]1 [Compound 113, 5-(4-(3-cyclopropyl-1H-pyrazol-5-ylamino)-5-ethynylpyrimidin-2-yl)-N-methylthiophene-2-sulfonamide] | 1 to 10 | B+ | – | –
C#Cc1cnc(-c2ccc(S(N)(=O)=O)s2)nc1Nc1cc(C2CC2)n[nH]1 [Compound 114, 5-(4-(3-Cyclopropyl-1H-pyrazol-5-ylamino)-5-ethynylpyrimidin-2-yl)thiophene-2-sulfonamide] | 1 to 10 | A+, A | – | –
C#Cc1cnc(-c2ccc(S(=O)(=O)NC(C)(C)C)s2)nc1Nc1cc(C2CC2)n[nH]1 [Compound 115, N-tert-butyl-5-(4-(5-cyclopropyl-1H-pyrazol-3-ylamino)-5-ethynylpyrimidin-2-yl)thiophene-2-sulfonamide] | 10 to 50 | B++, B+ | – | –
CNS(=O)(=O)c1ccc(-c2ncc(Cl)c(Nc3cc(C4CC4)n[nH]3)n2)cc1 [Compound 117, 4-[5-chloro-4-[(5-cyclopropyl-2H-pyrazol-3-yl)amino]-pyrimidin-2-yl]-N-methyl-benzenesulfonamide] | – | A, C, C | A*, A | –
OCc1cnc(-c2ccccc2)nc1Nc1cc(C2CC2)n[nH]1 [Compound 123, (4-(5-cyclopropyl-1H-pyrazol-3-ylamino)-2-phenylpyrimidin-5-yl)methanol] | 100 to 500 | B, C | – | –
NS(=O)(=O)c1cccc(-c2ncc(CO)c(Nc3cc(C4CC4)n[nH]3)n2)c1 [Compound 124, 3-(4-(5-cyclopropyl-1H-pyrazol-3-ylamino)-5-(hydroxymethyl)pyrimidin-2-yl)benzenesulfonamide] | 50 to 100 | A, B++ | – | –
Oc1ccc(-c2ncc(Cl)c(Nc3cc(C4CC4)[nH]n3)n2)cc1 [Compound 126, 4-[5-chloro-4-[(5-cyclopropyl-1H-pyrazol-3-yl)amino]-pyrimidin-2-yl]phenol] | 10 to 50 | B++, B+ | – | –
C#Cc1cnc(-c2ccc(Cl)c(C(N)=O)c2)nc1Nc1cc(C2CC2)n[nH]1 [Compound 128, 2-chloro-5-(4-(3-cyclopropyl-1H-pyrazol-5-ylamino)-5-ethynylpyrimidin-2-yl)benzamide] | 10 to 50 | B+, C | – | –
CN(CCO)S(=O)(=O)c1ccc(-c2ncc(Cl)c(Nc3cc(C4CC4)[nH]n3)n2)s1 [Compound 129, 5-(5-Chloro-4-(5-cyclopropyl-1H-pyrazol-3-ylamino)pyrimidin-2-yl)-N-(2-hydroxyethyl)-N-methylthiophene-2-sulfonamide] | 1 to 10 | B++ | – | –
CC(=O)NCc1ccc(-c2ncc(Cl)c(Nc3cc(C4CC4)n[nH]3)n2)s1 [Compound 136, N-((5-(5-chloro-4-(3-cyclopropyl-1H-pyrazol-5-ylamino)pyrimidin-2-yl)thiophen-2-yl)methyl)acetamide] | 10 to 50 | B+ | – | –
NCCNS(=O)(=O)c1cccc(-c2ncc(Cl)c(Nc3cc(C4CC4)[nH]n3)n2)c1 [Compound 138, N-(2-aminoethyl)-3-[5-chloro-4-[(5-cyclopropyl-1H-pyrazol-3-yl)amino]-pyrimidin-2-yl]-benzenesulfonamide] | 10 to 50 | B, C | – | –
O=S(=O)(NC1CC1)c1ccc(-c2ncc(Cl)c(Nc3cc(C4CC4)[nH]n3)n2)s1 [Compound 139, 5-[5-chloro-4-[(5-cyclopropyl-1H-pyrazol-3-yl)amino]-pyrimidin-2-yl]-N-cyclopropyl-thiophene-2-sulfonamide] | 10 to 50 | B+, C | – | –
NCc1ccc(-c2ncc(Cl)c(Nc3cc(C4CC4)n[nH]3)n2)s1 [Compound 141, 2-(5-(aminomethyl)thiophen-2-yl)-5-chloro-N-(3-cyclopropyl-1H-pyrazol-5-yl)pyrimidin-4-amine hydrochloride] | – | B, C, C | – | A, A, B**
Cc1cnc(-c2ccc([C@@H](C)O)s2)nc1Nc1cc(C2CC2)[nH]n1 [Compound 145, (R)-1-(5-(4-(5-cyclopropyl-1H-pyrazol-3-ylamino)-5-methylpyrimidin-2-yl)thiophen-2-yl)ethanol] | 50 to 100 | B++, B+ | – | –
